US11602540B2, “Method for stimulating blood flow in a penile region of a patient” (BMR MEDICAL LLC, priority 2016, dated 2023)

Assay: treatment of diffuse plaque by carbon dioxide injection into affected corpus tissues
Format: in vivo, patient
Conditions: injection directly into affected corpus tissues
Text: In addition to the above treatment method embodiments, Applicants have discovered that injection(s) of carbon dioxide is/are also effective to treat a condition related to Peyronie's disease known as “diffuse plaque” comprising plaque that has not assimilated into any hardened singular construct within the penis, but remains in a “diffuse” state throughout. The preferred treatment method is injection(s) of carbon dioxide directly into the affected corpus tissues to treat the diffuse plaque. This form of carbon dioxide injection treatment may be continued until the diffuse plaque has been sufficiently mitigated or eliminated. Preferably, if more than one carbon dioxide injection is required, then the second injection location is optimally spaced away from the location of the first carbon dioxide injection. As above, the “dose” of each carbon dioxide injection(s) is considered to be “therapeutically effective” which is defined as described above in conjunction with “carboxy therapy”.
FIG. 10 illustrates one method 900 for treating diffuse plaque using the above-described method steps. Thus, the “diffuse plaque” condition is identified or diagnosed within at least one corpus cavernosa at 902. […] After the initial round of administration/injection(s) of carbon dioxide is complete, the results may be assessed to see if the plaque is mitigated at 908. […]

## O=C=O [carbon dioxide]
  effectiveness in treating diffuse plaque: effective
